The subject of assay [1] is OVA-sensitized mice. Nature of the assay: Murine model of OVA-induced allergic diarrhea: diarrhea scores. The assay is classed as in vivo, Balb/c mice. An excerpt:
Male Balb/c mice were sensitized by intraperitoneal injection of ovalbumin (OVA) together with aluminium potassium sulphate.
(§1) Briefly, following sensitization (2 intraperitoneal injections of OVA and aluminium potassium sulphate at an interval of 14 days) adult male Balb/c mice were orally challenged with OVA for 6 times (days 28, 30, 33, 35, 37, 40) resulting in transient clinical symptoms (diarrhea) and changes of immune parameters (plasma concentration of total IgE, OVA specific IgE, mouse mast cell protease 1 (MMCP-1) as well as Th2 type cytokine production of ex vivo OVA re-stimulated mesenteric lymphocytes (MLN)). Substances, to be tested, were administered either by subcutaneous injection (thymoquinone and naloxone methiodide according to the literature) or by gavage (Nigella sativa extract).

For assay [2], the target named is δ-hOR (Homo sapiens, UniProt P41143). Nature of the assay: Ligand displacement from δ-opioid receptor. In kind it is binding. To be noted: 100 μM.
Assay [3] has as its target κ-hOR (Homo sapiens, UniProt P41145). Nature of the assay: Ligand displacement from κ-opioid receptor. The assay is classed as binding. The following applies: 100 μM.
In assay [4] the test system is mouse mast cell protease 1 (MMCP-1). Nature of the assay: Murine model of OVA-induced allergic diarrhea: plasma MMCP-1. In kind it is in vivo, Balb/c mice. To be noted: thymoquinone study; 4th challenge; FIG. 2.
Source text: as §1
At large the MMCP-1 concentration in plasma correlates with the number of mast cells in the tissue which are known to be key players of diarrhea development in this mouse model (Brandt, E. B., et al., 2003, J. Clin. Invest 112, 1666-1677).

For assay [5], the target named is μ-hOR (Homo sapiens, UniProt P35372). Nature of the assay: Ligand displacement from μ-opioid receptor. To be noted: 100 μM. The assay is classed as binding.
Sequence of μ-hOR (P35372 whole entry): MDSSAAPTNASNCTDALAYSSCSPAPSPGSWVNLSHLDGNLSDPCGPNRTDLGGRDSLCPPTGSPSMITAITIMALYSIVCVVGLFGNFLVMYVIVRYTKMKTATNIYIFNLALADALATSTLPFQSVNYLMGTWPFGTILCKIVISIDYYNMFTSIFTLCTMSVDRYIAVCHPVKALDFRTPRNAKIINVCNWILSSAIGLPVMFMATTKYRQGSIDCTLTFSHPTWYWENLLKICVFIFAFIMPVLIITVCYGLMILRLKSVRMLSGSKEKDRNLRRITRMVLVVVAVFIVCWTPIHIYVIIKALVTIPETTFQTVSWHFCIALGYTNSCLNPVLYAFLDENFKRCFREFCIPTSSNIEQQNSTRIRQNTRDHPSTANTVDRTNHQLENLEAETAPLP

Sequence of δ-hOR (P41143 whole entry): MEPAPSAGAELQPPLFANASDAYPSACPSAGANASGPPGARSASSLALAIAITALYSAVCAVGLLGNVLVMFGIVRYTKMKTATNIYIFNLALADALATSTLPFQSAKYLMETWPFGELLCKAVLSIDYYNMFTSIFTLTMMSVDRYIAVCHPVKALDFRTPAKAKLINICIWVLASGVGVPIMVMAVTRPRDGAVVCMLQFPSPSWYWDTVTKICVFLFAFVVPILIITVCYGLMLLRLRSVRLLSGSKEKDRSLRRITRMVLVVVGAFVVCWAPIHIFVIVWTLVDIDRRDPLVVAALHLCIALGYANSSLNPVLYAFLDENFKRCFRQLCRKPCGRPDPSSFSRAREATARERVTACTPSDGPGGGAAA
Sequence of κ-hOR (P41145 whole entry): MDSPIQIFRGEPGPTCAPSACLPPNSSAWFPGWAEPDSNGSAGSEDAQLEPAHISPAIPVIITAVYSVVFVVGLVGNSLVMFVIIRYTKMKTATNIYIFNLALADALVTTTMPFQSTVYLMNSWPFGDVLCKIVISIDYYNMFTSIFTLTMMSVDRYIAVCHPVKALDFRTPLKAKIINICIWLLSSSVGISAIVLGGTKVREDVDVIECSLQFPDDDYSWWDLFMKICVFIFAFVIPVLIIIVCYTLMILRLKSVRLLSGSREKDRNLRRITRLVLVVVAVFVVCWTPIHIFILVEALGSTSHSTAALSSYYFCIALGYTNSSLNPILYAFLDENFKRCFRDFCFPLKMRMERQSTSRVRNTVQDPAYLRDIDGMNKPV

As for `C=CC[N+]1(C)CC[C@]23c4c5ccc(O)c4O[C@H]2C(=O)CC[C@@]3(O)[C@H]1C5.[I-]` (stereo partly shown) [Naloxone, naloxone methiodide], the “diarrhea score (Median ±RobustSD)” value is 2±1.2 in assay [1] (3rd challenge, FIG. 3, OVA control 1±1.2); 3.5±1.2 in assay [1] (4th challenge, FIG. 3, OVA control 2±3.6); 4±0 in assay [1] (5th challenge, FIG. 3, OVA control 4±0); 5±0 in assay [1] (6th challenge, FIG. 3, OVA control 4.5±1.2).

`CC1=CC(=O)C(C(C)C)=CC1=O` [Thymoquinone, 2-Isopropyl-5-methyl-1,4-benzoquinone]: the “δ-hOR % ligand displacement” value in assay [2] came out at 48%. In addition, the “κ-hOR % ligand displacement” value in assay [3] is recorded as 37%. In addition, the “plasma MMCP-1 compared to non-treated OVA challenged controls” value in assay [4] is reported as “significantly lower”. Also, in assay [5], the “μ-hOR % ligand displacement” value was 45%. The “diarrhea score (Median ±RobustSD)” value in assay [1] (OVA-challenged mice treated with thymoquinone (subcutaneous), after 6th challenge, FIG. 1, OVA control 5±0) worked out at 3±1.79. In assay [1] (thymoquinone 4 days prior to sensitization and during challenge period, after 6th challenge), the “clinical symptoms compared to non-treated mice” value is listed as “significantly improve”.

Source of the values: patent publication US20120142580A1, “OPIOID RECEPTORS STIMULATING COMPOUNDS (THYMOQUINONE, NIGELLA SATIVA) AND FOOD ALLERGY” (NESTEC S.A., priority 2009, published 2012).
